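Cells were grown in 96-well plates and exposed to each compound for 48 hours at five concentrations; endpoints were interpolated linearly between bracketing concentrations, or set to the highest concentration if not reached. The concentration for 50% growth inhibition is given as GI50.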 Active and inactive are the calls of the source. No stated cut-off is given here; in the data, active = GI50 up to about 1.1 µM and inactive = higher. Some results are limits rather than exact numbers.

We go through 26 compounds from ChEMBL document CHEMBL1201862, “PubChem BioAssay data set” (2004).

Among the test systems are DLD-1; DMS-114; DMS-273; KM-20L2; M19-MEL; RXF 631; SNB-78; LXFL 529; XF498.
Common to all, as to experiment: growth of human tumour cells (NCI), 48 h

In the case of `CC1=C(/C=C/C(C)=C/C=C/C(C)=C/C=C/C=C(C)/C=C/C=C(C)/C=C/C2=C(C)C(=O)C(O)CC2(C)C)C(C)(C)CC(O)C1=O` (stereo unspecified), the GI50 with DLD-1, with DMS-114, with DMS-273, in the test on KM-20L2, in the test on M19-MEL and with RXF 631 was > 100 µM (inactive) each time. Besides, the GI50 with SNB-78 was > 100 µM (inactive).

In the case of `CCC(=O)OC1CCn2c1nc1c2C(=O)C(C)=C(N2CC2)C1=O` (stereo unspecified), the GI50 with DLD-1 was 0.105 µM (active); in the test on DMS-114, 0.12 µM (active); in the test on DMS-273, 0.045 µM (active); in the test with KM-20L2, 0.233 µM (active); in the test on LXFL 529, 0.0933 µM (active); in the test with M19-MEL, 0.146 µM (active). Further, the GI50 was 0.462 µM (active) in the test on SNB-78 and 0.0345 µM (active) in the test with XF498.

For the compound `CCN(CC)c1ccc(C(=C2C=CC(=[N+](CC)CC)C=C2)c2ccccc2)cc1`, the GI50 with DLD-1 was 0.0274 µM (active); in the test on DMS-114, 0.0156 µM (active); in the test on DMS-273, 0.0304 µM (active); in the test on KM-20L2 it was 0.0302 µM (active); in the test on LXFL 529, 0.0225 µM (active); in the test on M19-MEL, 0.0379 µM (active). Further, the results for the GI50 in the test on SNB-78 and with XF498 were 0.044 µM (active) and 0.0149 µM (active), respectively.

Turning to `c1ccc2c3nc(C4CCCC4)nc-3c(NC3CCCC3)[nH]c2c1`, the GI50 with DLD-1 is 30 µM (inactive); with DMS-114 it was 17.8 µM (inactive); with DMS-273, 8.43 µM (inactive); in the test on KM-20L2 it was 5 µM (inactive); with LXFL 529 it was 8.32 µM (inactive); with M19-MEL, 13.2 µM (inactive). Moreover, the GI50 with SNB-78 is 45.3 µM (inactive); in the test on XF498 it was 19.6 µM (inactive).

`C=C1COC(O)(C2OCOC(C3CC(=O)NC(=O)C3)C2O)C1C` (stereo unspecified): the GI50 is 0.00416 µM (active) in the test with DLD-1; 0.00319 µM (active) with DMS-114; 0.00417 µM (active) with DMS-273; 0.00281 µM (active) in the test with KM-20L2; 0.00222 µM (active) in the test on LXFL 529; 0.00156 µM (active) in the test with M19-MEL. Also, the GI50 with RXF 631 is 0.0037 µM (active); in the test on SNB-78 it was 0.00718 µM (active); in the test on XF498, < 0.01 µM (active).

`C=C(c1nc2ccc(Cl)cc2[nH]c1=O)C(O)c1ccc(C(O)C(=O)c2nc3ccc(Cl)cc3[nH]c2=O)cc1` (stereo unspecified): the GI50 in the test on DLD-1 was > 100 µM (inactive); in the test on DMS-114, 35.4 µM (inactive); with DMS-273, > 100 µM (inactive); with KM-20L2 it was 62.4 µM (inactive); with LXFL 529, 81.1 µM (inactive); in the test on M19-MEL, > 100 µM (inactive). The GI50 in the test with RXF 631, with SNB-78 and with XF498 was > 100 µM (inactive) throughout.

On to `CC(C)N(O)C(=N)c1ccccc1`, for which the GI50 in the test on DLD-1, with DMS-114, in the test with KM-20L2, in the test on LXFL 529, with M19-MEL and in the test on SNB-78 was > 100 µM (inactive) each time.

Consider `Cc1cc(N(CCC#N)S(C)(=O)=O)ccc1C=O`, for which the GI50 with DLD-1, with DMS-114, with DMS-273, in the test on KM-20L2, in the test on LXFL 529 and in the test on SNB-78 was > 100 µM (inactive) each time.

With `CCOC(=O)/N=c1\ss/c(=N\C(=S)N(C)C)n1-c1ccccc1`, the GI50 in the test with DLD-1 was > 10 µM (inactive); in the test on DMS-114 it was 0.453 µM (active); with DMS-273 it was 2.15 µM (inactive); in the test on KM-20L2, > 10 µM (inactive); in the test with LXFL 529, 4.44 µM (inactive); in the test on M19-MEL it was 0.834 µM (active). The GI50 in the test on SNB-78 was 36.3 µM (inactive); in the test on XF498, 28.8 µM (inactive).

Regarding `CCOC(=O)/C(=C/c1ccc(Cl)cc1)N(CC)CC`, the GI50 in the test on DLD-1, with LXFL 529, with M19-MEL, in the test with SNB-78 and with XF498 was > 100 µM (inactive) throughout.

For `CCOC(=O)/C(C#N)=C1\N[C@H](C(=O)OCC)CO1`, the GI50 with DLD-1, in the test with KM-20L2, in the test on LXFL 529, in the test on M19-MEL, with RXF 631 and in the test on SNB-78 was > 100 µM (inactive) throughout. The GI50 in the test on XF498 was 31.9 µM (inactive).

Turning to `CCC(=O)Nc1nc2c(ncn2C2OC(COC(=O)CC)C(OC(=O)CC)C2OC(=O)CC)c(=O)[nH]1` (stereo unspecified), the GI50 with DMS-273, in the test on KM-20L2, in the test with LXFL 529, in the test with M19-MEL and in the test on SNB-78 was > 100 µM (inactive) in each case.

`O=c1c2cc(Br)ccc2[nH]c(=S)n1-c1ccc(Br)cc1`: the GI50 in the test with DLD-1, in the test with DMS-114, in the test on KM-20L2, in the test with LXFL 529, with M19-MEL and in the test on SNB-78 was > 100 µM (inactive) throughout.

With `COC(=O)C(=O)C(C#N)c1ccc(CC#N)cc1` (stereo unspecified), the GI50 with DLD-1, in the test with DMS-273, with KM-20L2, with LXFL 529, in the test on M19-MEL and in the test with SNB-78 was > 100 µM (inactive) each time. In the test with XF498, the GI50 was > 100 µM (inactive).

Take `CC1(C)OC(=O)C(=C2CCC(C(=O)Nc3cccc(C(F)(F)F)c3)N2)C(=O)O1` (stereo unspecified): the GI50 with DLD-1 is > 100 µM (inactive); in the test on DMS-114, 37.4 µM (inactive); in the test with DMS-273, > 100 µM (inactive); in the test with KM-20L2 it was 68.4 µM (inactive); with LXFL 529, 39.6 µM (inactive); in the test with M19-MEL, 60.8 µM (inactive). The figures for the GI50 in the test with SNB-78 and in the test on XF498 were 87.7 µM (inactive) and 31.3 µM (inactive), respectively.

For the compound `CCOc1ccc(/N=C/c2ccnc3ccccc23)cc1`, the GI50 is 4.57 µM (inactive) in the test on DLD-1; 17.3 µM (inactive) in the test on DMS-114; 28.1 µM (inactive) with DMS-273; 43.7 µM (inactive) with KM-20L2; 16.2 µM (inactive) in the test on LXFL 529; > 71.1 µM (inactive) with M19-MEL. Also, the GI50 in the test on SNB-78 was > 60.1 µM (inactive); in the test on XF498, > 100 µM (inactive).

`O=[N+]([O-])c1cccc(C2=NN(c3ccccc3)C[N+](c3ccc(Br)cc3)=N2)c1`: the GI50 with DLD-1 was 96.8 µM (inactive); with DMS-273 it was 77.4 µM (inactive); with KM-20L2 it was > 100 µM (inactive); in the test with LXFL 529, 46.8 µM (inactive); in the test on M19-MEL, 70.8 µM (inactive); with SNB-78, 34.4 µM (inactive). The GI50 with XF498 is > 100 µM (inactive).

For `CCCC/C=C/C=C/C=C/CCCCCCCC(=O)OCC(COC(=O)CCCCCCC/C=C/C1C=CC(CCCC)C(C(=O)O)C1C(=O)O)OC(=O)CCCCCCC/C=C/C=C/C=C/CCCC.OCCNCO` (stereo unspecified), the GI50 with DLD-1 was 20 µM (inactive); in the test on DMS-114, 10.9 µM (inactive); in the test with DMS-273 it was 16.3 µM (inactive); in the test with KM-20L2, 20.9 µM (inactive); with LXFL 529, 17.8 µM (inactive); in the test on M19-MEL, 17.5 µM (inactive).

On to `c1cc(-c2cn[nH]c2)cc(-c2cn[nH]c2)c1`, for which the GI50 is 33.7 µM (inactive) in the test with DLD-1; 45.9 µM (inactive) with DMS-114; 30.6 µM (inactive) in the test on DMS-273; 33 µM (inactive) in the test on KM-20L2; 71.3 µM (inactive) in the test with M19-MEL; 38 µM (inactive) with RXF 631. In addition, in the test on SNB-78, the GI50 was 80.7 µM (inactive).

With `COc1ccc(/C=C2\SC(c3ccc(OC)cc3)N(NC(=O)Cc3ccccc3)C2=O)cc1` (stereo unspecified), the GI50 in the test with DLD-1, with DMS-114, in the test with DMS-273, in the test on LXFL 529 and in the test on M19-MEL was > 100 µM (inactive) in each case.

For `COc1ccc2nc3ccccc3c(NCCN(C)CCCl)c2c1`, the GI50 with DLD-1 is 0.524 µM (active); in the test with DMS-114 it was 0.752 µM (active); with DMS-273 it was 0.412 µM (active); in the test on KM-20L2 it was 0.438 µM (active); in the test with LXFL 529, 0.393 µM (active); in the test on M19-MEL it was 0.906 µM (active). In addition, the GI50 in the test with SNB-78 was 0.902 µM (active); with XF498 it was 0.514 µM (active).

In the case of `Cc1nn2c(nc1=O)sc1ccc3ccccc3c12`, the GI50 in the test with DLD-1, in the test on DMS-114, in the test with DMS-273, with KM-20L2, with LXFL 529 and in the test with M19-MEL was > 100 µM (inactive) in each case. Besides, the GI50 in the test on SNB-78 and in the test on XF498 was > 100 µM (inactive) each time.

As to `CS(=O)(=O)N(CCC#N)c1ccc(/C=C2\N=C(c3ccccc3Cl)OC2=O)cc1`, the GI50 with DLD-1, in the test with DMS-114, with DMS-273, in the test on KM-20L2, with LXFL 529 and in the test on M19-MEL was > 100 µM (inactive) in each case. The GI50 in the test on SNB-78 and in the test on XF498 was > 100 µM (inactive) in each case.

`CC1(C)O[C@H]2OC3CCC(=O)CC3(O)[C@H]2O1` (stereo partly specified): the GI50 with DLD-1 was > 100 µM (inactive); with DMS-114, > 100 µM (inactive); in the test with M19-MEL, > 100 µM (inactive); in the test on SNB-78, > 100 µM (inactive); in the test on XF498 it was 0.507 µM (active).

For the compound `O=C1/C(=C/c2ccccc2Cl)COc2ccccc21`, the GI50 is 15.3 µM (inactive) in the test on DLD-1; 18 µM (inactive) in the test with DMS-114; 15 µM (inactive) in the test with DMS-273; 18.5 µM (inactive) in the test on KM-20L2; 17.5 µM (inactive) with LXFL 529; 18.6 µM (inactive) in the test with M19-MEL. Besides, the GI50 with RXF 631 was 19.2 µM (inactive); with SNB-78, 19.3 µM (inactive); in the test with XF498, 15.6 µM (inactive).

Take `C[C@@]12CCC(=O)c3coc(c31)C(=O)c1cc3c(cc12)C(=O)C=CC3=O` [HELENAQUINONE]: the GI50 was 15.4 µM (inactive) in the test on DLD-1; 14 µM (inactive) in the test on DMS-114; 15.5 µM (inactive) with DMS-273; > 86.5 µM (inactive) in the test with KM-20L2; 17.4 µM (inactive) in the test on LXFL 529; 6.05 µM (inactive) with M19-MEL. The GI50 was 22 µM (inactive) with SNB-78 and 18.9 µM (inactive) with XF498.
